Experimental data taken from patent US6518243B1, “Desleucyl glycopeptide antibiotics and methods of making same” (Trustees of Princeton University, priority 1999, dated 2003).

Legend:
Test in all cases: Zone of inhibition screen, 96 well agar array format
Type in all cases: cell-based
Set-up in all cases: scale not given here
S. aureus (ATCC 29213) = system: S. aureus (ATCC 29213)
Summary of the method: (§1)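 Panel screening of every compound against several bacterial strains, among them E. faecium ATCC 49624, was done in a 96-well agar array.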

E. faecalis (CL 4877) = system: E. faecalis (CL 4877)
Summary of the method: as §1

[1] = system: S. epidermidis (ATCC 12228)
Summary of the method: as §1

[2] = zone of inhibition relative to 1 mg/ml stock solution of p-chlorobiphenylvancomycin
[3] = zone of inhibition relative to 1 mg/ml p-chlorobiphenylvancomycin

Structure (SMILES)	zone score, S. aureus ATCC 29213 (S. aureus (ATCC 29213); [2])	zone score, E. faecalis CL 4877 (E. faecalis (CL 4877); [2])	zone score, S. epidermidis ATCC 12228 [1, 2]	zone score, S. aureus ATCC 29213 (S. aureus (ATCC 29213); [3])	zone score, E. faecalis CL 4877 (E. faecalis (CL 4877); [3])	zone score, S. epidermidis ATCC 12228 [1, 3]
CC1OC(OC2C(Oc3c4cc5cc3Oc3ccc(cc3Cl)C(O)C3NC(=O)C(NC(=O)C5NC(=O)C(CC(N)=O)NC(=O)C(NC(=O)CC[S+](C)C)C(O)c5ccc(c(Cl)c5)O4)c4ccc(O)c(c4)-c4c(O)cc(O)cc4C(C(=O)O)NC3=O)OC(CO)C(O)C2O)CC(C)(NCc2ccc(-c3ccc(Cl)cc3)cc2)C1O (stereo not drawn) [Compound 94]	2	2	2			
CC(=O)NC(Cc1cnc[nH]1)C(=O)NC1C(=O)NC(CC(N)=O)C(=O)NC2C(=O)NC3C(=O)NC(C(=O)NC(C(=O)O)c4cc(O)cc(O)c4-c4cc3ccc4O)C(O)c3ccc(c(Cl)c3)Oc3cc2cc(c3OC2OC(CO)C(O)C(O)C2OC2CC(C)(NCc3ccc(-c4ccc(Cl)cc4)cc3)C(O)C(C)O2)Oc2ccc(cc2Cl)C1O (mixture of isomers) [Compound 324]				2	2	2
CC1OC(OC2C(Oc3c4cc5cc3Oc3ccc(cc3Cl)C(O)C3NC(=O)C(NC(=O)C5NC(=O)C(CC(N)=O)NC(=O)C(NC(=O)c5cccn5C)C(O)c5ccc(c(Cl)c5)O4)c4ccc(O)c(c4)-c4c(O)cc(O)cc4C(C(=O)O)NC3=O)OC(CO)C(O)C2O)CC(C)(NCc2ccc(-c3ccc(Cl)cc3)cc2)C1O (stereo not drawn) [Compound 229]				2	2	2
CC1OC(OC2C(Oc3c4cc5cc3Oc3ccc(cc3Cl)C(O)C3NC(=O)C(NC(=O)C5NC(=O)C(CC(N)=O)NC(=O)C(NC(=O)c5c[nH]cn5)C(O)c5ccc(c(Cl)c5)O4)c4ccc(O)c(c4)-c4c(O)cc(O)cc4C(C(=O)O)NC3=O)OC(CO)C(O)C2O)CC(C)(NCc2ccc(-c3ccc(Cl)cc3)cc2)C1O (stereo not drawn) [Compound 272]				2	2	2
CC1OC(OC2C(Oc3c4cc5cc3Oc3ccc(cc3Cl)C(O)C3NC(=O)C(NC(=O)C5NC(=O)C(CC(N)=O)NC(=O)C(NC(=O)c5ccc6[nH]nnc6c5)C(O)c5ccc(c(Cl)c5)O4)c4ccc(O)c(c4)-c4c(O)cc(O)cc4C(C(=O)O)NC3=O)OC(CO)C(O)C2O)CC(C)(NCc2ccc(-c3ccc(Cl)cc3)cc2)C1O (stereo not drawn) [Compound 281]				2	2	2
CC1OC(OC2C(Oc3c4cc5cc3Oc3ccc(cc3Cl)C(O)C3NC(=O)C(NC(=O)C5NC(=O)C(CC(N)=O)NC(=O)C(NC(=O)c5ccc(F)cc5)C(O)c5ccc(c(Cl)c5)O4)c4ccc(O)c(c4)-c4c(O)cc(O)cc4C(C(=O)O)NC3=O)OC(CO)C(O)C2O)CC(C)(NCc2ccc(-c3ccc(Cl)cc3)cc2)C1O (stereo not drawn) [Compound 270]				2	2	2
CC1OC(OC2C(Oc3c4cc5cc3Oc3ccc(cc3Cl)C(O)C3NC(=O)C(NC(=O)C5NC(=O)C(CC(N)=O)NC(=O)C(NC(=O)C(N)CSCCO)C(O)c5ccc(c(Cl)c5)O4)c4ccc(O)c(c4)-c4c(O)cc(O)cc4C(C(=O)O)NC3=O)OC(CO)C(O)C2O)CC(C)(NCc2ccc(-c3ccc(Cl)cc3)cc2)C1O (stereo not drawn) [Compound 48]	2	2	2			
CC1OC(OC2C(Oc3c4cc5cc3Oc3ccc(cc3Cl)C(O)C3NC(=O)C(NC(=O)C5NC(=O)C(CC(N)=O)NC(=O)C(NC(=O)CNC(=O)C(CCC(N)=O)NC(=O)OCc5ccccc5)C(O)c5ccc(c(Cl)c5)O4)c4ccc(O)c(c4)-c4c(O)cc(O)cc4C(C(=O)O)NC3=O)OC(CO)C(O)C2O)CC(C)(NCc2ccc(-c3ccc(Cl)cc3)cc2)C1O (stereo not drawn) [Compound 211]				2	2	2
CC1OC(OC2C(Oc3c4cc5cc3Oc3ccc(cc3Cl)C(O)C3NC(=O)C(NC(=O)C5NC(=O)C(CC(N)=O)NC(=O)C(NC(=O)c5cccc(O)c5)C(O)c5ccc(c(Cl)c5)O4)c4ccc(O)c(c4)-c4c(O)cc(O)cc4C(C(=O)O)NC3=O)OC(CO)C(O)C2O)CC(C)(NCc2ccc(-c3ccc(Cl)cc3)cc2)C1O (stereo not drawn) [Compound 261]				2	2	2
CC1OC(OC2C(Oc3c4cc5cc3Oc3ccc(cc3Cl)C(O)C3NC(=O)C(NC(=O)C5NC(=O)C(CC(N)=O)NC(=O)C(NC(=O)c5ccc(S(C)(=O)=O)cc5)C(O)c5ccc(c(Cl)c5)O4)c4ccc(O)c(c4)-c4c(O)cc(O)cc4C(C(=O)O)NC3=O)OC(CO)C(O)C2O)CC(C)(NCc2ccc(-c3ccc(Cl)cc3)cc2)C1O (stereo not drawn) [Compound 264]				2	0	2
COc1cc(OC)c(CNC(=O)CC(N)C(=O)NC2C(=O)NC(CC(N)=O)C(=O)NC3C(=O)NC4C(=O)NC(C(=O)NC(C(=O)O)c5cc(O)cc(O)c5-c5cc4ccc5O)C(O)c4ccc(c(Cl)c4)Oc4cc3cc(c4OC3OC(CO)C(O)C(O)C3OC3CC(C)(NCc4ccc(-c5ccc(Cl)cc5)cc4)C(O)C(C)O3)Oc3ccc(cc3Cl)C2O)c(OC)c1 (stereo not drawn) [Compound 45]	2	2	2			
CSCCC(NC=O)C(=O)NC1C(=O)NC(CC(N)=O)C(=O)NC2C(=O)NC3C(=O)NC(C(=O)NC(C(=O)O)c4cc(O)cc(O)c4-c4cc3ccc4O)C(O)c3ccc(c(Cl)c3)Oc3cc2cc(c3OC2OC(CO)C(O)C(O)C2OC2CC(C)(NCc3ccc(-c4ccc(Cl)cc4)cc3)C(O)C(C)O2)Oc2ccc(cc2Cl)C1O (mixture of isomers) [Compound 326]				2	2	2
CC1OC(OC2C(Oc3c4cc5cc3Oc3ccc(cc3Cl)C(O)C3NC(=O)C(NC(=O)C5NC(=O)C(CC(N)=O)NC(=O)C(NC(=O)C5CNCCO5)C(O)c5ccc(c(Cl)c5)O4)c4ccc(O)c(c4)-c4c(O)cc(O)cc4C(C(=O)O)NC3=O)OC(CO)C(O)C2O)CC(C)(NCc2ccc(-c3ccc(Cl)cc3)cc2)C1O (mixture of isomers) [Compound 23]	2	2	2			
CC1OC(OC2C(Oc3c4cc5cc3Oc3ccc(cc3Cl)C(O)C3NC(=O)C(NC(=O)C5NC(=O)C(CC(N)=O)NC(=O)C(NC(=O)C(F)F)C(O)c5ccc(c(Cl)c5)O4)c4ccc(O)c(c4)-c4c(O)cc(O)cc4C(C(=O)O)NC3=O)OC(CO)C(O)C2O)CC(C)(NCc2ccc(-c3ccc(Cl)cc3)cc2)C1O (stereo not drawn) [Compound 285]				2	2	2
COCCC(N)C(=O)NC1C(=O)NC(CC(N)=O)C(=O)NC2C(=O)NC3C(=O)NC(C(=O)NC(C(=O)O)c4cc(O)cc(O)c4-c4cc3ccc4O)C(O)c3ccc(c(Cl)c3)Oc3cc2cc(c3OC2OC(CO)C(O)C(O)C2OC2CC(C)(NCc3ccc(-c4ccc(Cl)cc4)cc3)C(O)C(C)O2)Oc2ccc(cc2Cl)C1O (stereo not drawn) [Compound 322]				2	2	2
CC(NC(=O)OCc1ccccc1)C(=O)NCC(=O)NCC(=O)NC1C(=O)NC(CC(N)=O)C(=O)NC2C(=O)NC3C(=O)NC(C(=O)NC(C(=O)O)c4cc(O)cc(O)c4-c4cc3ccc4O)C(O)c3ccc(c(Cl)c3)Oc3cc2cc(c3OC2OC(CO)C(O)C(O)C2OC2CC(C)(NCc3ccc(-c4ccc(Cl)cc4)cc3)C(O)C(C)O2)Oc2ccc(cc2Cl)C1O (stereo not drawn) [Compound 209]				2	2	2
CC1OC(OC2C(Oc3c4cc5cc3Oc3ccc(cc3Cl)C(O)C3NC(=O)C(NC(=O)C5NC(=O)C(CC(N)=O)NC(=O)C(NC(=O)c5cccc[n+]5[O-])C(O)c5ccc(c(Cl)c5)O4)c4ccc(O)c(c4)-c4c(O)cc(O)cc4C(C(=O)O)NC3=O)OC(CO)C(O)C2O)CC(C)(NCc2ccc(-c3ccc(Cl)cc3)cc2)C1O (stereo not drawn) [Compound 313]				2	2	2
CC1OC(OC2C(Oc3c4cc5cc3Oc3ccc(cc3Cl)C(O)C(NC(=O)C(F)(F)C(F)(F)C(F)(F)F)C(=O)NC(CC(N)=O)C(=O)NC5C(=O)NC3C(=O)NC(C(=O)NC(C(=O)O)c5cc(O)cc(O)c5-c5cc3ccc5O)C(O)c3ccc(c(Cl)c3)O4)OC(CO)C(O)C2O)CC(C)(NCc2ccc(-c3ccc(Cl)cc3)cc2)C1O (stereo not drawn) [Compound 290]				2	2	2
CC(NC(N)=O)C(=O)NC1C(=O)NC(CC(N)=O)C(=O)NC2C(=O)NC3C(=O)NC(C(=O)NC(C(=O)O)c4cc(O)cc(O)c4-c4cc3ccc4O)C(O)c3ccc(c(Cl)c3)Oc3cc2cc(c3OC2OC(CO)C(O)C(O)C2OC2CC(C)(NCc3ccc(-c4ccc(Cl)cc4)cc3)C(O)C(C)O2)Oc2ccc(cc2Cl)C1O (mixture of isomers) [Compound 206]				2	2	2
Cc1oncc1C(=O)NC1C(=O)NC(CC(N)=O)C(=O)NC2C(=O)NC3C(=O)NC(C(=O)NC(C(=O)O)c4cc(O)cc(O)c4-c4cc3ccc4O)C(O)c3ccc(c(Cl)c3)Oc3cc2cc(c3OC2OC(CO)C(O)C(O)C2OC2CC(C)(NCc3ccc(-c4ccc(Cl)cc4)cc3)C(O)C(C)O2)Oc2ccc(cc2Cl)C1O (stereo not drawn) [Compound 275]				2	2	2
CC1OC(OC2C(Oc3c4cc5cc3Oc3ccc(cc3Cl)C(O)C3NC(=O)C(NC(=O)C5NC(=O)C(CC(N)=O)NC(=O)C(NC(=O)CC(N)C(N)=O)C(O)c5ccc(c(Cl)c5)O4)c4ccc(O)c(c4)-c4c(O)cc(O)cc4C(C(=O)O)NC3=O)OC(CO)C(O)C2O)CC(C)(NCc2ccc(-c3ccc(Cl)cc3)cc2)C1O (stereo not drawn) [Compound 59]	2	2	2			
